Assay type in all cases: cell-based
One experiment concerns Septoria tritici. In words: Microtest, activity against leaf blotch on wheat. To be noted: 405 nm 9 days after inoculation, comparative example.
Another experiment has as its system Phytophthora infestans. As to conditions: 405 nm 7 days after inoculation, comparative example.
A further experiment relates to Leptosphaeria nodorum. In words: Microtest, activity against wheat leaf spots. As to conditions: 405 nm 9 days after inoculation, comparative example.

These results are taken from patent US20180086714A1 (priority 2015, published 2018).

Consider `CC1(C)N=C(c2cnc3ccccc3c2)c2ccccc2C1(C)C`, for which the “Growth (%) at 8 ppm” value with Septoria tritici was determined as 74%.

For `CC1(C)N=C(c2cnc3ccccc3c2)c2[nH]ccc2C1(C)C`, the “Growth (%) at 8 ppm” value in the experiment on Septoria tritici worked out at 53%.

`CC1(C)Cc2ccccc2C(c2cnc3ccccc3c2)=N1` [drawing 139]: the “Growth (%) at 31 ppm” value with Phytophthora infestans turned out to be 33%.

Take `CC1(C)Cc2cc[nH]c2C(c2cnc3ccccc3c2)=N1` [drawing 140]: the “Growth (%) at 31 ppm” value in the experiment on Phytophthora infestans turned out to be 17%.

Take `CC1(C)Cc2ccccc2C(c2cnc3ccccc3c2)=N1` [drawing 141]: the “Growth (%) at 2 ppm” value with Leptosphaeria nodorum is 83%.

On to `CC1(C)Cc2cc[nH]c2C(c2cnc3ccccc3c2)=N1` [drawing 142], for which the “Growth (%) at 2 ppm” value with Leptosphaeria nodorum stood at 65%.
